Measured values: ChEMBL document CHEMBL3046206, “Synthesis of new 4-(2,5-dimethylpyrrol-1-yl)/4-pyrrol-1-yl benzoic acid hydrazide analogs and some derived oxadiazole, triazole and pyrrole ring systems: a novel class of potential antibacterial, antifungal and antitubercular agents” (Med Chem Res, 2013)
≈ marks a conversion by molar mass, not a printed value.

How the values were obtained:
Enterococcus faecalis = assay: Antibacterial activity against Enterococcus faecalis after 18 hr by broth microdilution technique; assay type: functional
Saccharomyces cerevisiae = assay: Antifungal activity against Saccharomyces cerevisiae after 18 hr by broth microdilution technique; assay type: functional
Candida tropicalis = assay: Antifungal activity against Candida tropicalis after 18 hr by broth microdilution technique; assay type: functional
Escherichia coli = assay: Antibacterial activity against Escherichia coli after 18 hr by broth microdilution technique; assay type: functional
Aspergillus niger = assay: Antifungal activity against Aspergillus niger after 18 hr by broth microdilution technique; assay type: functional
[1] = test system: Mycobacterium tuberculosis; assay: Antimycobacterial activity against Mycobacterium tuberculosis H37Rv after 21 days by broth dilution method; assay type: functional; details: 504 h
Pseudomonas aeruginosa = assay: Antibacterial activity against Pseudomonas aeruginosa after 18 hr by broth microdilution technique; assay type: functional
Staphylococcus aureus = assay: Antibacterial activity against Staphylococcus aureus after 18 hr by broth microdilution technique; assay type: functional
Klebsiella pneumoniae = assay: Antibacterial activity against Klebsiella pneumoniae after 18 hr by broth microdilution technique; assay type: functional
Bacillus subtilis = assay: Antibacterial activity against Bacillus subtilis after 18 hr by broth microdilution technique; assay type: functional
A549 = assay: Cytotoxicity against Homo sapiens (human) A549 cells after 72 hr by MTT assay; assay type: cell-based; details: A549, 72 h
Vero = assay: Cytotoxicity against Chlorocebus aethiops (African green monkey) Vero cells after 72 hr by MTT assay; assay type: cell-based; details: Chlorocebus sabaeus

Molecule `Cc1ccc(C)n1-c1ccc(C(=O)N/N=C/c2cccc([N+](=O)[O-])c2)cc1` has an MIC (Enterococcus faecalis) of 31.2 µg/mL (≈ 86.2 µM), an MIC (Saccharomyces cerevisiae) of 31.2 µg/mL (≈ 86.2 µM) and an MIC (Candida tropicalis) of 16 µg/mL (≈ 44.2 µM). For the same molecule, the MIC (Escherichia coli) was 500 µg/mL (≈ 1380 µM), the MIC (Aspergillus niger) was 16 µg/mL (≈ 44.2 µM) and the MIC [1] was 62.5 µg/mL (≈ 172 µM). For the same molecule, the MIC (Pseudomonas aeruginosa) was 500 µg/mL (≈ 1380 µM), the MIC (Staphylococcus aureus) was 31.2 µg/mL (≈ 86.2 µM) and the MIC (Klebsiella pneumoniae) was 500 µg/mL (≈ 1380 µM). It also gave an MIC (Bacillus subtilis) of 31.2 µg/mL (≈ 86.2 µM).

`CC(=O)N1N=C(c2ccc(-n3c(C)ccc3C)cc2)OC1c1cccc([N+](=O)[O-])c1` (stereo not given) gave an MIC (Enterococcus faecalis) of 31.2 µg/mL (≈ 77.3 µM), an MIC (Saccharomyces cerevisiae) of 31.2 µg/mL (≈ 77.3 µM) and an MIC (Candida tropicalis) of 8 µg/mL (≈ 19.8 µM). For the same molecule, the MIC (Escherichia coli) was 62.5 µg/mL (≈ 155 µM), the MIC (Aspergillus niger) was 8 µg/mL (≈ 19.8 µM) and the IC50 (A549) was 197 µM. It also gave an MIC [1] of 31.2 µg/mL (≈ 77.3 µM), an MIC (Pseudomonas aeruginosa) of 62.5 µg/mL (≈ 155 µM) and an MIC (Staphylococcus aureus) of 31.2 µg/mL (≈ 77.3 µM). For the same molecule, the MIC (Klebsiella pneumoniae) was 62.5 µg/mL (≈ 155 µM), the MIC (Bacillus subtilis) was 16 µg/mL (≈ 39.6 µM) and the IC50 (Vero) was 188 µM.

`CC(=O)N1N=C(c2ccc(-n3c(C)ccc3C)cc2)OC1c1ccc(Br)cc1` (stereo not given) was tested, and the MIC (Enterococcus faecalis) was 31.2 µg/mL (≈ 71.3 µM), the MIC (Saccharomyces cerevisiae) was 31.2 µg/mL (≈ 71.3 µM) and the MIC (Candida tropicalis) was 8 µg/mL (≈ 18.3 µM). It also gave an MIC (Escherichia coli) of 500 µg/mL (≈ 1140 µM), an MIC (Aspergillus niger) of 16 µg/mL (≈ 36.5 µM) and an IC50 (A549) of 195 µM. For the same molecule, the MIC [1] was 8 µg/mL (≈ 18.3 µM), the MIC (Pseudomonas aeruginosa) was 500 µg/mL (≈ 1140 µM) and the MIC (Staphylococcus aureus) was 16 µg/mL (≈ 36.5 µM). It also gave an MIC (Klebsiella pneumoniae) of 31.2 µg/mL (≈ 71.3 µM), an MIC (Bacillus subtilis) of 8 µg/mL (≈ 18.3 µM) and an IC50 (Vero) of 195 µM.

`CC(=O)N1N=C(c2ccc(-n3c(C)ccc3C)cc2)OC1c1ccccc1` (stereo not given) was tested, and the MIC (Enterococcus faecalis) was 62.5 µg/mL (≈ 174 µM), the MIC (Saccharomyces cerevisiae) was 62.5 µg/mL (≈ 174 µM) and the MIC (Candida tropicalis) was 16 µg/mL (≈ 44.5 µM). The MIC (Escherichia coli) was 500 µg/mL (≈ 1390 µM), the MIC (Aspergillus niger) was 31.2 µg/mL (≈ 86.9 µM) and the IC50 (A549) was 198 µM. For the same molecule, the MIC [1] was 16 µg/mL (≈ 44.5 µM), the MIC (Pseudomonas aeruginosa) was 500 µg/mL (≈ 1390 µM) and the MIC (Staphylococcus aureus) was 62.5 µg/mL (≈ 174 µM). It also gave an MIC (Klebsiella pneumoniae) of 62.5 µg/mL (≈ 174 µM), an MIC (Bacillus subtilis) of 16 µg/mL (≈ 44.5 µM) and an IC50 (Vero) of 190 µM.

In the case of `Cc1ccc(C)n1-c1ccc(C(=O)NN=C(c2ccccc2)c2ccccc2)cc1`, the MIC (Enterococcus faecalis) is reported as 31.2 µg/mL (≈ 79.4 µM), the MIC (Saccharomyces cerevisiae) is reported as 62.5 µg/mL (≈ 159 µM) and the MIC (Candida tropicalis) is reported as 62.5 µg/mL (≈ 159 µM). The MIC (Escherichia coli) was 500 µg/mL (≈ 1270 µM), the MIC (Aspergillus niger) was 62.5 µg/mL (≈ 159 µM) and the MIC [1] was 31.2 µg/mL (≈ 79.4 µM). For the same molecule, the MIC (Pseudomonas aeruginosa) was 500 µg/mL (≈ 1270 µM), the MIC (Staphylococcus aureus) was 62.5 µg/mL (≈ 159 µM) and the MIC (Klebsiella pneumoniae) was 500 µg/mL (≈ 1270 µM). It also gave an MIC (Bacillus subtilis) of 31.2 µg/mL (≈ 79.4 µM).

`CC(C)=NNC(=O)c1ccc(-n2c(C)ccc2C)cc1` showed an MIC (Enterococcus faecalis) of 31.2 µg/mL (≈ 116 µM), an MIC (Saccharomyces cerevisiae) of 62.5 µg/mL (≈ 232 µM) and an MIC (Candida tropicalis) of 31.2 µg/mL (≈ 116 µM). The MIC (Escherichia coli) was 500 µg/mL (≈ 1860 µM), the MIC (Aspergillus niger) was 62.5 µg/mL (≈ 232 µM) and the MIC [1] was 31.2 µg/mL (≈ 116 µM). The MIC (Pseudomonas aeruginosa) was 500 µg/mL (≈ 1860 µM), the MIC (Staphylococcus aureus) was 31.2 µg/mL (≈ 116 µM) and the MIC (Klebsiella pneumoniae) was 500 µg/mL (≈ 1860 µM). It also gave an MIC (Bacillus subtilis) of 16 µg/mL (≈ 59.4 µM).

In the case of `Cc1ccc(C)n1-c1ccc(C(=O)N/N=C/c2ccccc2Cl)cc1`, the MIC (Enterococcus faecalis) is reported as 31.2 µg/mL (≈ 88.8 µM), the MIC (Saccharomyces cerevisiae) is reported as 31.2 µg/mL (≈ 88.8 µM) and the MIC (Candida tropicalis) is reported as 8 µg/mL (≈ 22.7 µM). It also gave an MIC (Escherichia coli) of 500 µg/mL (≈ 1420 µM), an MIC (Aspergillus niger) of 16 µg/mL (≈ 45.5 µM) and an MIC [1] of 16 µg/mL (≈ 45.5 µM). For the same molecule, the MIC (Pseudomonas aeruginosa) was 500 µg/mL (≈ 1420 µM), the MIC (Staphylococcus aureus) was 16 µg/mL (≈ 45.5 µM) and the MIC (Klebsiella pneumoniae) was 62.5 µg/mL (≈ 178 µM). The MIC (Bacillus subtilis) was 8 µg/mL (≈ 22.7 µM).

With `Cc1ccc(C)n1-c1ccc(C(=O)N/N=C/c2ccc(N(C)C)cc2)cc1` the MIC (Enterococcus faecalis) was 31.2 µg/mL (≈ 86.7 µM), the MIC (Saccharomyces cerevisiae) was 31.2 µg/mL (≈ 86.7 µM) and the MIC (Candida tropicalis) was 31.2 µg/mL (≈ 86.7 µM). It also gave an MIC (Escherichia coli) of 500 µg/mL (≈ 1390 µM), an MIC (Aspergillus niger) of 31.2 µg/mL (≈ 86.7 µM) and an MIC [1] of 31.2 µg/mL (≈ 86.7 µM). For the same molecule, the MIC (Pseudomonas aeruginosa) was 500 µg/mL (≈ 1390 µM), the MIC (Staphylococcus aureus) was 31.2 µg/mL (≈ 86.7 µM) and the MIC (Klebsiella pneumoniae) was 62.5 µg/mL (≈ 173 µM). The MIC (Bacillus subtilis) was 31.2 µg/mL (≈ 86.7 µM).

Molecule `Cc1ccc(C)n1-c1ccc(C(=O)N/N=C/c2ccc(Br)cc2)cc1` has an MIC (Enterococcus faecalis) of 31.2 µg/mL (≈ 78.9 µM), an MIC (Saccharomyces cerevisiae) of 31.2 µg/mL (≈ 78.9 µM) and an MIC (Candida tropicalis) of 8 µg/mL (≈ 20.2 µM). For the same molecule, the MIC (Escherichia coli) was 500 µg/mL (≈ 1260 µM), the MIC (Aspergillus niger) was 16 µg/mL (≈ 40.4 µM) and the MIC [1] was 16 µg/mL (≈ 40.4 µM). For the same molecule, the MIC (Pseudomonas aeruginosa) was > 500 µg/mL, the MIC (Staphylococcus aureus) was 16 µg/mL (≈ 40.4 µM) and the MIC (Klebsiella pneumoniae) was 500 µg/mL (≈ 1260 µM). For the same molecule, the MIC (Bacillus subtilis) was 16 µg/mL (≈ 40.4 µM).

`OC(Cn1cncn1)(Cn1cncn1)c1ccc(F)cc1F` [FLUCONAZOLE] was tested, and the MIC (Saccharomyces cerevisiae) was ≤ 1 µg/mL, the MIC (Candida tropicalis) was ≤ 1 µg/mL and the MIC (Aspergillus niger) was ≤ 1 µg/mL.

`Cc1ccc(C)n1-c1ccc(C(=O)NN)cc1` was tested, and the MIC (Enterococcus faecalis) was 62.5 µg/mL (≈ 273 µM), the MIC (Saccharomyces cerevisiae) was 62.5 µg/mL (≈ 273 µM) and the MIC (Candida tropicalis) was 62.5 µg/mL (≈ 273 µM). It also gave an MIC (Escherichia coli) of 500 µg/mL (≈ 2180 µM), an MIC (Aspergillus niger) of 62.5 µg/mL (≈ 273 µM) and an MIC [1] of 62.5 µg/mL (≈ 273 µM). It also gave an MIC (Pseudomonas aeruginosa) of 500 µg/mL (≈ 2180 µM), an MIC (Staphylococcus aureus) of 62.5 µg/mL (≈ 273 µM) and an MIC (Klebsiella pneumoniae) of 62.5 µg/mL (≈ 273 µM). It also gave an MIC (Bacillus subtilis) of 62.5 µg/mL (≈ 273 µM).

In the case of `O=C(O)c1cn(C2CC2)c2cc(N3CCNCC3)c(F)cc2c1=O` [CIPROFLOXACIN], the MIC (Enterococcus faecalis) is reported as < 5 µg/mL, the MIC (Escherichia coli) is reported as ≤ 1 µg/mL and the MIC (Pseudomonas aeruginosa) is reported as > 5 µg/mL. The MIC (Staphylococcus aureus) was < 5 µg/mL, the MIC (Klebsiella pneumoniae) was ≤ 1 µg/mL and the MIC (Bacillus subtilis) was ≤ 1 µg/mL.

With `Cc1ccc(C)n1-c1ccc(C(=O)N/N=C/c2ccccc2[N+](=O)[O-])cc1` the MIC (Enterococcus faecalis) was 31.2 µg/mL (≈ 86.2 µM), the MIC (Saccharomyces cerevisiae) was 31.2 µg/mL (≈ 86.2 µM) and the MIC (Candida tropicalis) was 16 µg/mL (≈ 44.2 µM). The MIC (Escherichia coli) was > 500 µg/mL, the MIC (Aspergillus niger) was 16 µg/mL (≈ 44.2 µM) and the MIC [1] was 62.5 µg/mL (≈ 172 µM). The MIC (Pseudomonas aeruginosa) was > 500 µg/mL, the MIC (Staphylococcus aureus) was 62.5 µg/mL (≈ 172 µM) and the MIC (Klebsiella pneumoniae) was > 500 µg/mL. It also gave an MIC (Bacillus subtilis) of 31.2 µg/mL (≈ 86.2 µM).

Molecule `Cc1ccc(C)n1-c1ccc(C(=O)N/N=C/c2ccc(O)cc2)cc1` has an MIC (Enterococcus faecalis) of 16 µg/mL (≈ 48 µM), an MIC (Saccharomyces cerevisiae) of 16 µg/mL (≈ 48 µM) and an MIC (Candida tropicalis) of 16 µg/mL (≈ 48 µM). For the same molecule, the MIC (Escherichia coli) was 500 µg/mL (≈ 1500 µM), the MIC (Aspergillus niger) was 16 µg/mL (≈ 48 µM) and the MIC [1] was 31.2 µg/mL (≈ 93.7 µM). It also gave an MIC (Pseudomonas aeruginosa) of 500 µg/mL (≈ 1500 µM), an MIC (Staphylococcus aureus) of 16 µg/mL (≈ 48 µM) and an MIC (Klebsiella pneumoniae) of 62.5 µg/mL (≈ 187 µM). For the same molecule, the MIC (Bacillus subtilis) was 31.2 µg/mL (≈ 93.7 µM).

`C/C(=N/NC(=O)c1ccc(-n2c(C)ccc2C)cc1)c1ccc(N)cc1` was tested, and the MIC (Enterococcus faecalis) was 62.5 µg/mL (≈ 180 µM), the MIC (Saccharomyces cerevisiae) was 62.5 µg/mL (≈ 180 µM) and the MIC (Candida tropicalis) was 62.5 µg/mL (≈ 180 µM). For the same molecule, the MIC (Escherichia coli) was 500 µg/mL (≈ 1440 µM), the MIC (Aspergillus niger) was 62.5 µg/mL (≈ 180 µM) and the MIC [1] was 31.2 µg/mL (≈ 90.2 µM). The MIC (Pseudomonas aeruginosa) was 500 µg/mL (≈ 1440 µM), the MIC (Staphylococcus aureus) was 31.2 µg/mL (≈ 90.2 µM) and the MIC (Klebsiella pneumoniae) was 500 µg/mL (≈ 1440 µM). It also gave an MIC (Bacillus subtilis) of 62.5 µg/mL (≈ 180 µM).
